From patent publication US8815828B2, “Therapeutic combinations for use in neoplasia” (University of Florida Research Foundation, Inc., priority 2008, dated 2014)
Where two headings read alike, the source gives them in different places.

Key:
T47D breast cancer cells = experiment: Sulforhodamine B (SRB) colorimetric cytotoxicity assay, T47D; type: cell-based, human; settings: for IC50: read-out: IC50 (cytotoxicity), agent alone
Description: Data are the mean±SE of three different estimations.
The developed color was measured at 564 nm.

MCF7 breast cancer cells = experiment: Sulforhodamine B (SRB) colorimetric cytotoxicity assay, MCF7; settings: for IC50: read-out: IC50 (cytotoxicity), agent alone
Description: After 48 hours, cells were harvested and processed for cytotoxicity determination by clonogenic assay. Data presented are the mean±SE of three different estimations.
The IC50 (the drug concentration needed to prevent cell proliferation by 50%) of TMZ was determined using a sulforhodamine B (SRB) colorimetric assay. This assay relies on the ability of SRB to bind the protein components of cells that have been fixed to tissue culture plates by trichloroacetic acid (TCA) (Vachai V, Kirtikara K. Sulforhodamine B colorimetric assay for cytotoxicity screening. Nat. Proto. 3: 1122-1116, 2006). MCF7 and T47D cells were seeded in 96-well plates at a density of 500 cells per well. After 24 hours, while the cells were in the log phase of cell growth, the cells were treated with different concentrations of TMZ (1-1000 μM) for 48 hours. […] The cells were subsequently fixed with 10% (w/v) of tricholoroacetic acid, washed with double distilled water, and stained with 0.4% SRB. Cells were then repeatedly washed with 1% (v/v) of acetic acid to remove the unbound dye. The protein bound dye was dissolved in 10 mM Tris-base solution (pH 10.5). The developed color was measured at 564 nm. The percentage of cell survival as a function of drug concentration was then plotted to determine the IC50 value.

[1] = tested on: T47D and MCF7 human breast cancer cell lines; experiment: Cytotoxicity by clonogenic assay (FIG. 3 legend), T47D and MCF7 stated jointly; type: cell-based; settings: one value for both, read-out: IC50, agent alone
[2] = tested on: MDA-MB468 and MDA-MB-231 human breast cancer cell lines; experiment: Cytotoxicity by clonogenic assay (FIG. 4 legend), MDA-MB468 and MDA-MB-231 stated jointly; type: cell-based; settings: MDA-MB468 and MDA-MB-231 cell lines, one value for both; read-out: IC50, agent alone
Description: After 48 hours, drugs were withdrawn and allowed to grow in fresh medium for determination of cytotoxicity by clonogenic assay. Data presented are the mean±SE of three different estimations. […] Data presented are the mean+/−SE of three different estimations.

[3] = tested on: MDA-MB-468 breast cancer cells; experiment: Sulforhodamine B (SRB) colorimetric cytotoxicity assay, MDA-MB-468; settings: for IC50: read-out: IC50 (cytotoxicity), agent alone
[4] = tested on: MDA-MB-231 breast cancer cells; experiment: Sulforhodamine B (SRB) colorimetric cytotoxicity assay, MDA-MB-231; settings: for IC50: read-out: IC50 (cytotoxicity), agent alone
Pol-β = Pol-β (Homo sapiens, UniProt P06746); experiment: In vitro base excision repair (BER) assay with 32P-U-DNA substrate; type: biochemical; settings: dose-dependent manner (FIG. 2B)
Excerpt: The reaction conditions are described below. […] Data are representative of three different experiments.
An assay was developed that permits in vitro analysis of BER as described in FIG. 2A.

[5] = tested on: MCF7, T47D, MDA-MB-231 and MDA-MB-468 human breast cancer cell lines; experiment: Clonogenic assay (Example 5, FIG. 8), four breast cancer cell lines stated jointly; type: cell-based; settings: one value for all cell lines of FIG. 8, read-out: IC50, agent alone
Description: (§1) After 48 hours, drugs were withdrawn and allowed to grow in fresh medium for determination of cytotoxicity by clonogenic assay. The data presented are the mean±SE of three different estimations.
(§2) To test this hypothesis, the IC50 of TMZ in four human breast cancer cell lines was determined using a clonogenic assay (Vachai et al., Nat. Proto. 3: 1122-1116, 2006). The cell lines used were MCF7, T47D (both ER/PR/HER2-positive), MDA-MB-231 and MDA-MB-468 (both triple-negative).

MCF7 cells = experiment: Clonogenic assay (Example 5, FIG. 8), MCF7; type: cell-based; settings: Homo sapiens, 48 hours, then fresh medium, read-out: IC50 of TMZ alone or in the named combination
Description: as §1, §2

T47D cells = experiment: Clonogenic assay (Example 5, FIG. 8), T47D; type: cell-based; settings: Homo sapiens, 48 hours, then fresh medium, read-out: IC50 of TMZ alone or in the named combination
Description: as §1, §2

MDA-MB-468 cells = experiment: Clonogenic assay (Example 5, FIG. 8), MDA-MB-468; type: cell-based; settings: Homo sapiens, 48 hours, then fresh medium, read-out: IC50 of TMZ alone or in the named combination
Description: as §1, §2

MDA-MB-231 cells = experiment: Clonogenic assay (Example 5, FIG. 8), MDA-MB-231; type: cell-based; settings: Homo sapiens, 48 hours, then fresh medium, read-out: IC50 of TMZ alone or in the named combination
Description: as §1, §2

`Nc1nc(OCc2ccccc2)c2nc[nH]c2n1` [BG, O^6-benzylguanine] was tested, and the IC50 (T47D breast cancer cells; T47D cells, 48 hours) was ~149 µM, the IC50 (MCF7 breast cancer cells; MCF7 cells, 48 hours) was ~91 µM and the IC50 [1] was ~75 µM. For the same compound, the IC50 [2] was ~75 µM, the IC50 ([3]; MDA-MB-468 cells, 48 hours) was ~100 µM and the IC50 ([4]; MDA-MB-231 cells, 48 hours) was ~77 µM.

For `Nc1cc(I)n([C@H]2C[C@H](O)[C@@H](COP(=O)(O)O)O2)c(=O)n1` [NSC-124854, 5′-cytidylic acid, 2′-deoxy-6-iodo-(9CI)], the strand-displacement synthesis (Pol-β; 32P-U-DNA substrate, in the presence of Fen-1) was “blocked”, the “Pol-β-mediated 1-nt incorporation” value (Pol-β; 32P-U-DNA substrate) was “blocked” and the “complete repair of 32P-U-DNA by the SN-BER pathway” value (Pol-β; with DNA ligase I) was “blocked”. For the same compound, the “complete repair of 32P-U-DNA by the LP-BER pathway” value (Pol-β; with Fen-1 and DNA ligase I) was “blocked”.

For `Cc1cc(S(=O)(=O)Nc2n[nH]c(Nc3ccc(Cl)cc3)n2)c(S)cc1Cl` [NSC-666715, Benzosulfonamide, 4-chloro-N-[5-[(4-chlorophenyl)amino]1H-1,2,4-triazol-3-yl]-2-mercapto-5-methyl-(9Cl)], the IC50 [1] was ~100 µM, the IC50 [2] was ~100 µM and the IC50 [5] was 100 µM.

`Cn1nnc2c(C(N)=O)ncn2c1=O` [TMZ, Temozolomide] was tested, and the IC50 (T47D breast cancer cells; Homo sapiens, T47D, 48 h) was 303 µM, the “reduction of the IC50 of TMZ” value (T47D breast cancer cells; T47D cells, TMZ with BG (2.5 μM)) was “about 4 fold” and the “reduction of the IC50 of TMZ” value (T47D breast cancer cells; T47D cells, TMZ with NSC-666715 (15 μM)) was “about 1.1 fold”. For the same compound, the “reduction of the IC50 of TMZ” value (T47D breast cancer cells; T47D cells, TMZ with both BG (2.5 μM) and NSC-666715 (15 μM)) was “about 8 fold”, the IC50 (MCF7 breast cancer cells; Homo sapiens, MCF7, 48 h) was 303 µM and the “reduction of the IC50 of TMZ” value (MCF7 breast cancer cells; MCF7 cells, TMZ with BG (2.5 μM)) was “about 4 fold”. The “reduction of the IC50 of TMZ” value (MCF7 breast cancer cells; MCF7 cells, TMZ with NSC-666715 (15 μM)) was “about 1.5 fold”, the “reduction of the IC50 of TMZ” value (MCF7 breast cancer cells; MCF7 cells, TMZ with both BG (2.5 μM) and NSC-666715 (15 μM)) was “about 7 fold” and the “reduction in the IC50 of TMZ” value (MCF7 breast cancer cells; NSC-666715 and O6-benzylguanine in combination with temozolomide, cell line not stated at this place (figure matches MCF7)) was 7 fold. The IC50 (MCF7 cells) was 331 µM, the IC50 (T47D cells) was 334 µM and the IC50 (MDA-MB-468 cells) was 298 µM. For the same compound, the IC50 (MDA-MB-231 cells) was 334 µM, the IC50 ([3]; Homo sapiens, MDA-MB-468, 48 h) was 316 µM and the “reduction of the IC50 of TMZ” value ([3]; MDA-MB-468 cells, TMZ with BG (2.5 μM)) was “about 6 fold”. The “reduction of the IC50 of TMZ” value ([3]; MDA-MB-468 cells, TMZ with NSC-666715 (15 μM)) was “about 0.1 fold”, the “reduction of the IC50 of TMZ” value ([3]; MDA-MB-468 cells, TMZ with both BG (2.5 μM) and NSC-666715 (15 μM)) was “about 15 fold” and the IC50 ([4]; Homo sapiens, MDA-MB-231, 48 h) was 344 µM. For the same compound, the “reduction of the IC50 of TMZ” value ([4]; MDA-MB-231 cells, TMZ with BG (2.5 μM)) was “about 2.8 fold”, the “reduction of the IC50 of TMZ” value ([4]; MDA-MB-231 cells, TMZ with NSC-666715 (15 μM)) was “about 1.5 fold” and the “reduction of the IC50 of TMZ” value ([4]; MDA-MB-231 cells, TMZ with both BG (2.5 μM) and NSC-666715 (15 μM)) was “about 6.6 fold”.

For `COc1cc(/C=C/C(=O)CC(=O)/C=C/c2ccc(O)c(OC)c2)ccc1O` [curcumin, (1E,6E)-1,7-bis(4-hydroxy-3-methoxy-phenyl)hepta-1,6-diene-3,5-dione], the IC50 ([5]; Homo sapiens) was 5 µM.
